Measurements taken from ChEMBL document CHEMBL4257515, “Assessment of the trifluoromethyl ketone functionality as an alternative zinc-binding group for selective HDAC6 inhibition” (Medchemcomm, 2018).
Activity calls are given as the source filed them. The rule behind the calls is not given here.

Legend:
[1] = test system: SK-OV-3; experiment: Antiproliferative activity against human SKOV3 cells at 10 uM measured every 2 hrs for 200 hrs by IncuCyte ZOOM cell confluence assay; assay type: functional, cell-based
[2] = molecular target: T1, Protein deacetylase HDAC6 (Homo sapiens) (UniProt Q9UBN7); experiment: Inhibition of full length recombinant human HDAC6 at 10 uM using Fluor-de-Lys deacetylase as substrate preincubated for 15 mins followed by substrate addition and measured after 60 mins by spectrofluorimetric method relative to control
T1 sequence (whole entry): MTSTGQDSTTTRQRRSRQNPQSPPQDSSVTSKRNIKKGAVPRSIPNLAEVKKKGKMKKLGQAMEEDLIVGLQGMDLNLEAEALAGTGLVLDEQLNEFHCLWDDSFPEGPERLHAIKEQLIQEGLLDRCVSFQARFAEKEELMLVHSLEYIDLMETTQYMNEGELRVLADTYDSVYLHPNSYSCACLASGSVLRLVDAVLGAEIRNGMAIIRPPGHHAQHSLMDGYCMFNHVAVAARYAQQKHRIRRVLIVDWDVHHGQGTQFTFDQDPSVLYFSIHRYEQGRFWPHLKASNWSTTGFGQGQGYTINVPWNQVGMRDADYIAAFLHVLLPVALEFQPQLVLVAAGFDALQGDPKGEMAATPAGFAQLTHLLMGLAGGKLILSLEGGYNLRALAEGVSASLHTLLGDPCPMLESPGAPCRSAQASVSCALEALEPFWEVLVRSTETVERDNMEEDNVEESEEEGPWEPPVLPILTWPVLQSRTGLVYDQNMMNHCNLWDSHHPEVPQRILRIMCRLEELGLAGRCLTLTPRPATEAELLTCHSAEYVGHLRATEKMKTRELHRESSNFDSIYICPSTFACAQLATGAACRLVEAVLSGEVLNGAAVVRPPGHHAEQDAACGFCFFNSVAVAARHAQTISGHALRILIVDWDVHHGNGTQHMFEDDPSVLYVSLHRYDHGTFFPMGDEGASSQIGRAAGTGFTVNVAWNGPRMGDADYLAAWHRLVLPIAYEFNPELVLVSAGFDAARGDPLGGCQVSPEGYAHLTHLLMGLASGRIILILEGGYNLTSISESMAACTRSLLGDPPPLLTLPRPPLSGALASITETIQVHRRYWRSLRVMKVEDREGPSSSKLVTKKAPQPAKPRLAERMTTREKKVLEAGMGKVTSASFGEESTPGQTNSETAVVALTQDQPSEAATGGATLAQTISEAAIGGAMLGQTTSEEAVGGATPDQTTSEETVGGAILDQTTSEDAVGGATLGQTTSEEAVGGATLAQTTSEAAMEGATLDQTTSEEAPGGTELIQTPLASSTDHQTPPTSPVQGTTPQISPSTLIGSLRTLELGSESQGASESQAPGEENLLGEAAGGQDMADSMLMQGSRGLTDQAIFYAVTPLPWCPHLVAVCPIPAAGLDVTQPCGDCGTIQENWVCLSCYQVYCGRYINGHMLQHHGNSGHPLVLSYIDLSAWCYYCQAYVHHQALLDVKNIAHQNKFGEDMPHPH

[3] = test system: SK-OV-3; experiment: Antiproliferative activity against human SKOV3 cells at 1 to 50 uM measured every 2 hrs for 200 hrs by IncuCyte ZOOM cell confluence assay; assay type: functional, cell-based
[4] = molecular target: Histone deacetylase (Homo sapiens) (UniProt Q13547+O15379+Q9UBN7+Q92769+Q9UQL6+Q8WUI4+Q9BY41+Q96DB2+P56524+Q9UKV0+Q969S8); experiment: Inhibition of nuclear HDAC in human SKOV3 cells assessed as increase in acetylated histone H3 levels at 1 to 50 uM after 1 hr by immunoblot method; assay type: cell-based
[5] = molecular target: T1, Protein deacetylase HDAC6 (Homo sapiens); experiment: Inhibition of HDAC6 in human SKOV3 cells assessed as increase in acetylated tubulin levels at 1 to 50 uM after 1 hr by immunoblot method; assay type: cell-based
[6] = molecular target: T1, Protein deacetylase HDAC6 (Homo sapiens); experiment: Inhibition of HDAC6 in human SKOV3 cells assessed as increase in acetylated tubulin levels at 1 uM after 1 hr by immunoblot method; assay type: cell-based

In the case of `O=C(CCCCCCC(=O)Nc1ccccc1)NO`, the Activity [1] is reported as “Active”.
`O=C(c1ccccc1)C(F)(F)F` showed an inhibition [2] of 0%.
In the case of `O=C(c1ccc(Cn2c3c(c4ccccc42)C[S+]([O-])CC3)cc1)C(F)(F)F` (stereo not given), the inhibition [2] is reported as 17%.
Compound `O=C(NO)c1ccccc1` has an inhibition [2] of 88%.
For `O=C(c1ccc(Cn2c3c(c4cc(F)ccc42)C[S+]([O-])CC3)cc1)C(F)(F)F` (stereo not given), the Activity [3] was “inactive”, the inhibition [4] was “inactive” and the inhibition [2] was 25%. For the same compound, the inhibition [5] was “inactive”.
For `O=C(NO)c1ccc(Cn2c3c(c4cc(F)ccc42)C[S+]([O-])CC3)cc1` (stereo not given), the inhibition [2] was 100% and the inhibition [6] was “Active”.
